Assay results from patent US7173027B2, “Receptor selective cannabimimetic aminoalkylindoles” (University of Connecticut, priority 2001, dated 2007).
Where two headings read alike, the source gives them in different places.

Legend:
CB2 receptor = biological target: T1, CB2 receptor (Mus musculus, UniProt P47936); assay: CB2 receptor binding, mouse spleen membranes, [3H]CP-55,940 displacement; settings: for Ki: mouse spleen membranes
T1 construct: membranes were prepared from frozen mouse spleen; from tissue; host or cells: frozen mouse spleen membranes
T1 sequence (P47936 whole entry): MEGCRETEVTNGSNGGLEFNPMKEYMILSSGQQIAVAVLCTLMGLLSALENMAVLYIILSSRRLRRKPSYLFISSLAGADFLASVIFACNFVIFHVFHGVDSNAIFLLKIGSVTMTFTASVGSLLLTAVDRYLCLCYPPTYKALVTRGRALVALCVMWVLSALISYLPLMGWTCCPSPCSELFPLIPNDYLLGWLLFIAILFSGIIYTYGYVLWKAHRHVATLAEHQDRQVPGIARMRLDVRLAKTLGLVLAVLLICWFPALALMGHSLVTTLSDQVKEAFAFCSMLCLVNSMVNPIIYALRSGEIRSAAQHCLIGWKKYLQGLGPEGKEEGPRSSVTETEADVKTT
Description: (§1) The prepared cannabinoid compounds were tested for CB2 receptor binding affinity and for CB1 receptor affinity (to determine selectivity for the CB2 receptor). As used herein, “binding affinity” is represented by the IC50 value which is the concentration of an analog required to occupy the 50% of the total number (Bmax) of the receptors. The lower the IC50 value, the higher the binding affinity. […] The binding affinities (Ki) are expressed in nanomoles (nM).
(§2) The treated membranes were subsequently used in the binding assay described below. Approximately 30 μg of membranes were incubated in silanized 96-well microtiter plate with TME containing 0.1% essentially fatty acid-free bovine serum albumin (BSA), 0.8 nM [^3H] CP-55,940, and various concentrations of test materials at 30° C. for 1 hour. The samples were immediately filtered using a Packard Filtermate 196 and Whatman GF/C filterplates and washed with wash buffer (TME) containing 0.5% BSA. Radioactivity was detected using MicroScint 20 scintillation cocktail added directly to the dried filterplates, and the filterplates were counted using a Packard Instruments Top-Count. Nonspecific binding was assessed using 100 nM CP-55,940. Data collected from three independent experiments performed with duplicate determinations was normalized between 100% and 0% specific binding for [^3H] CP-55,940, determined using buffer and 100 nM CP-55,940.The normalized data was analyzed using a 4-parameter nonlinear logistic equation to yield IC50 values. Data from at least two independent experiments performed in duplicate was used to calculate IC50 values which were converted to Ki values using the using the assumptions of Cheng et al; “Relationship Between the Inhibition Constant (Ki) and the concentration of Inhibitor which causes 50% Inhibition (IC50) of an Enzymatic Reaction”, Biochem. Pharmacol., 22, 3099–3102, (1 973), which is incorporated by reference herein.
For the CB2 receptor binding studies, membranes were prepared from frozen mouse spleen essentially according to the procedure of P. R. Dodd et al; “A Rapid Method for Preparing Synaptosomes: Comparison with Alternative Procedures”, Brain Res., 226, 107–118 (1981) which is incorporated by reference herein. Silanized centrifuge tubes were used throughout to minimize receptor loss due to adsorption. The CB2 binding assay was conducted in the same manner as the CB1 binding assay. The binding affinities (Ki) were also expressed in nanomoles (nM).

CB1 receptor = biological target: T2, CB1 receptor (Rattus norvegicus, UniProt P20272); assay: CB1 receptor binding, rat forebrain membranes, [3H]CP-55,940 displacement
T2 construct: membranes were prepared from rat forebrain membranes; from tissue; host or cells: rat forebrain membranes
T2 sequence (P20272 whole entry): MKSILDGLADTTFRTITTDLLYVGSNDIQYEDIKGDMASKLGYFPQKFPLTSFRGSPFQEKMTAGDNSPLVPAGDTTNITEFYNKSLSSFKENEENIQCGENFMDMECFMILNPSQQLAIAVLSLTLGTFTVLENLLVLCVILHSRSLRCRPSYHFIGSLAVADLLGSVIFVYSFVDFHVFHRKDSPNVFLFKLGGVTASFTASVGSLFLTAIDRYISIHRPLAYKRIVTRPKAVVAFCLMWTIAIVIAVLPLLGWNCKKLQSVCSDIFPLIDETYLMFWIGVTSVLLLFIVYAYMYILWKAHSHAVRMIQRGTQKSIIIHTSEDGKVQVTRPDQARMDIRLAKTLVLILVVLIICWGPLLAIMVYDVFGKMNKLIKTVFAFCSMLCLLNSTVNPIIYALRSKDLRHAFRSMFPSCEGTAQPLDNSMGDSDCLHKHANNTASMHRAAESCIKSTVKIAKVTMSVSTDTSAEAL
Description: as §1
For the CB1 receptor-binding studies, membranes were prepared from rat forebrain membranes according to the procedure of P. R. Dodd et al; A Rapid Method for Preparing Synaptosomes: Comparison with Alternative Procedures, Brain Res., 107–118 (1981). The binding of the novel analogues to the CB1 cannabinoid receptor was assessed as described in W. A. Devane et al; Determination and Characterization of a Cannabinoid Receptor in a Rat Brain, Mol. Pharmacol., 34, 605–613 (1988) and A. Charalambous et al; “5′-azido ^8−-THC: A Novel Photoaffinity Label for the Cannabinoid Receptor”, J. Med. Chem., 35, 3076–3079 (1992) with the following changes. The above articles are incorporated by reference herein.
Membranes, previously frozen at −80° C., were thawed on ice. To the stirred suspension was added three volumes of TME (25 mM Tris-HCl buffer, 5 mM MgCl2 and 1 mM EDTA) at a pH 7.4.The suspension was incubated at 4° C. for 30 min. At the end of the incubation, the membranes were pelleted and washed three times with TME.
as §2

human CB2 receptors = biological target: T3, human CB2 receptors (Homo sapiens, UniProt P34972); assay: Binding affinity to human CB2 receptors, human tissue samples
T3 construct: using the below described procedure with human tissue samples; from tissue
T3 sequence (P34972 whole entry): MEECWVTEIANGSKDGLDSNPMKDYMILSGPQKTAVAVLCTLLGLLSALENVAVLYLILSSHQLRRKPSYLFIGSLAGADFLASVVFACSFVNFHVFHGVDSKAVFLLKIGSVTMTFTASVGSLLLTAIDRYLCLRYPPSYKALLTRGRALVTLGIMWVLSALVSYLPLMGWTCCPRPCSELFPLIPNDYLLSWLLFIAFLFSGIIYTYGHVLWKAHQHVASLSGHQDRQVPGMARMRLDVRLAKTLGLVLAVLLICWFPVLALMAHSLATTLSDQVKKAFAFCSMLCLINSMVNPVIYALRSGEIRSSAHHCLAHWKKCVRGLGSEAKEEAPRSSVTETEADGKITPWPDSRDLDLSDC

[1] = Ki nM CB1, Table 2, 0.8 nM [3H]CP-55,940
[2] = Table 2, 0.8 nM [3H]CP-55,940, read-out: Ki nM CB1
[3] = Table 2, human CB2, read-out: Ki nM CB2 (Human)
[4] = Table 1, 0.8 nM [3H]CP-55,940, read-out: Ki nM CB1

## CN1CCCC[C@@H]1Cn1cc(C(=O)c2cc([N+](=O)[O-])ccc2I)c2ccccc21 [2-7(R)]
CB2 receptor; Ki nM CB2, Table 1
  Ki: 0.53 nM
CB1 receptor; Ki nM CB1, Table 1, 0.8 nM [3H]CP-55,940
  Ki: 285 nM

## CN1CCCC[C@@H]1Cn1cc(C(=O)c2cc([N+](=O)[O-])ccc2I)c2ccccc21 [2-32(R)]
CB2 receptor; Ki nM CB2, Table 2
  Ki: 1.42 nM
Human CB2 receptors
  Ki: 6.69 nM
CB1 receptor; [1]
  Ki: 140 nM

## CN1CCOCC1Cn1cc(C(=O)c2cccc3ccccc23)c2ccccc21 (stereo not drawn) [2-31]
CB2 receptor; Table 2, read-out: Ki nM CB2
  Ki: 26.6 nM
CB1 receptor; [2]
  Ki: 5.7 nM

## CN1CCCCC1Cn1cc(C(=O)c2cc([N+](=O)[O-])ccc2I)c2ccccc21 (racemic) [2-32(R,S)]
CB2 receptor; Table 2, read-out: Ki nM CB2
  Ki: 3.41 nM
Human CB2 receptors; [3]
  Ki: 13.6 nM
CB1 receptor; [2]
  Ki: 239 nM

## CN1CCCC[C@@H]1Cn1cc(C(=O)c2ccccc2I)c2ccccc21 [2-24(R)]
CB1 receptor; [4]
  Ki: 1.8 nM

## CN1CCCCC1Cn1cc(C(=O)c2cccs2)c2ccccc21 (stereo not drawn) [2-39]
CB2 receptor; Table 2, read-out: Ki nM CB2
  Ki: 19.5 nM
CB1 receptor; [2]
  Ki: 41.4 nM

## CN1CCCC[C@@H]1Cn1cc(C(=O)c2ccccc2I)c2ccccc21 [2-34(R)]
CB1 receptor; [1]
  Ki: 1.57 nM

## CN1CCCCC1Cn1cc(C(=O)c2cc3ccccc3cn2)c2ccccc21 (stereo not drawn) [2-40]
CB2 receptor; Table 2, read-out: Ki nM CB2
  Ki: 14.5 nM
CB1 receptor; [2]
  Ki: 28.6 nM

## CN1CCOCC1Cn1cc(C(=O)c2cccc([N+](=O)[O-])c2I)c2ccccc21 (stereo not drawn) [2-30]
CB2 receptor; Table 2, read-out: Ki nM CB2
  Ki: 154 nM
CB1 receptor; [2]
  Ki: 464 nM

## CN1CCCC[C@H]1Cn1cc(C(=O)c2ccccc2I)c2ccccc21 [2-24(S)]
CB1 receptor; [4]
  Ki: 561 nM

## CN1CCCCC1Cn1cc(C(=O)c2ccccc2I)c2ccccc21 (racemic) [2-34(R,S)]
Human CB2 receptors; [3]
  Ki: 2.49 nM
CB1 receptor; [2]
  Ki: 2.89 nM

## CN1CCCCC1Cn1cc(C(=O)c2cc(O)ccc2I)c2ccccc21 (stereo not drawn) [2-49]
CB2 receptor; Table 2, read-out: Ki nM CB2
  Ki: 18.6 nM
CB1 receptor; [2]
  Ki: 29.1 nM

## O=C(c1cc([N+](=O)[O-])ccc1I)c1cn(CC2COCCN2Cc2ccccc2)c2ccccc12 (stereo not drawn) [2-26]
CB2 receptor; Table 2, read-out: Ki nM CB2
  Ki: 1430 nM
CB1 receptor; [2]
  Ki: 4210 nM

## CN1CCCCC1Cn1cc(C(=O)c2cc(C#N)ccc2I)c2ccccc21 (stereo not drawn) [2-45]
CB2 receptor; Table 2, read-out: Ki nM CB2
  Ki: 15.8 nM
CB1 receptor; [2]
  Ki: 418 nM

## CN1CCCCC1Cn1cc(C(=O)c2ccnc3ccccc23)c2ccccc21 (stereo not drawn) [2-38]
CB2 receptor; Table 2, read-out: Ki nM CB2
  Ki: 747 nM
CB1 receptor; [2]
  Ki: 719 nM

## CN1CCCCC1Cn1cc(C(=O)c2cnc3ccccc3c2)c2ccccc21 (stereo not drawn) [2-36]
CB2 receptor; Table 2, read-out: Ki nM CB2
  Ki: 8.53 nM
CB1 receptor; [2]
  Ki: 133 nM

## CN1CCCCC1Cn1cc(C(=O)C23CC4CC(CC(C4)C2)C3)c2ccccc21 (stereo not drawn) [2-33, 1-(N-Methyl-2-piperidinyl)methyl-3-(1-adamantanecarbonyl)-1H-indole]
CB2 receptor; Ki nM CB2, Table 2
  Ki: 4.8 nM
Human CB2 receptors
  Ki: 2.32 nM
CB1 receptor; [1]
  Ki: 11.9 nM

## CN1CCCCC1Cn1cc(C(=O)c2cc(C(N)=O)ccc2I)c2ccccc21 (stereo not drawn) [2-48]
CB2 receptor; Table 2, read-out: Ki nM CB2
  Ki: 47.2 nM
CB1 receptor; [2]
  Ki: 390 nM

## CN1CCCC[C@H]1Cn1cc(C(=O)c2ccccc2I)c2ccccc21 [2-34(S)]
CB1 receptor; [1]
  Ki: 14.2 nM

## CN1CCCCC1Cn1cc(C(=O)c2cnc3ccccc3n2)c2ccccc21 (stereo not drawn) [2-41]
CB2 receptor; Table 2, read-out: Ki nM CB2
  Ki: 160 nM
CB1 receptor; [2]
  Ki: 158 nM

## CN1CCCCC1Cn1cc(C(=O)c2cnccn2)c2ccccc21 (stereo not drawn) [2-37]
CB2 receptor; Table 2, read-out: Ki nM CB2
  Ki: 837 nM
CB1 receptor; [2]
  Ki: 3540 nM

## CN1CCOCC1Cn1cc(C(=O)c2ccccc2I)c2ccccc21 (stereo not drawn) [2-28]
CB2 receptor; Table 2, read-out: Ki nM CB2
  Ki: 226 nM
CB1 receptor; [2]
  Ki: 27.9 nM

## CN1CCOCC1Cn1cc(C(=O)c2cc([N+](=O)[O-])ccc2I)c2ccccc21 (stereo not drawn) [2-29]
CB2 receptor; Table 2, read-out: Ki nM CB2
  Ki: 48.4 nM
CB1 receptor; [2]
  Ki: 848 nM

## O=C(c1cccc([N+](=O)[O-])c1I)c1cn(CC2COCCN2Cc2ccccc2)c2ccccc12 (stereo not drawn) [2-27]
CB2 receptor; Table 2, read-out: Ki nM CB2
  Ki: 928 nM
CB1 receptor; [2]
  Ki: 2380 nM

## CN1CCCCC1Cn1cc(C(=O)c2ccc3ccccc3n2)c2ccccc21 (stereo not drawn) [2-35]
CB2 receptor; Table 2, read-out: Ki nM CB2
  Ki: 20.9 nM
CB1 receptor; [2]
  Ki: 14.4 nM

## CN1CCCCC1Cn1cc(C(=O)c2cncc3ccccc23)c2ccccc21 (stereo not drawn) [2-44]
CB2 receptor; Table 2, read-out: Ki nM CB2
  Ki: 7.04 nM
CB1 receptor; [2]
  Ki: 16.9 nM

## CN1CCCCC1Cn1cc(C(=O)c2ccccn2)c2ccccc21 (stereo not drawn) [2-42]
CB2 receptor; Table 2, read-out: Ki nM CB2
  Ki: 147 nM
CB1 receptor; [2]
  Ki: 421 nM

## CN1CCCCC1Cn1cc(C(=O)c2cc(C#N)ccc2I)c2ccccc21 (stereo not drawn) [2-46]
CB2 receptor; Table 2, read-out: Ki nM CB2
  Ki: 15.4 nM
CB1 receptor; [2]
  Ki: 339 nM

## CN1CCCCC1Cn1cc(C(=O)c2cccc[n+]2[O-])c2ccccc21 (stereo not drawn) [2-43]
CB2 receptor; Table 2, read-out: Ki nM CB2
  Ki: 1860 nM
CB1 receptor; [2]
  Ki: 8820 nM

## O=C(c1ccccc1I)c1cn(CC2COCCN2Cc2ccccc2)c2ccccc12 (stereo not drawn) [2-25]
CB2 receptor; Table 2, read-out: Ki nM CB2
  Ki: 1800 nM
CB1 receptor; [2]
  Ki: 1220 nM

## CN1CCCCC1Cn1cc(C(=O)c2cc(C(=O)O)ccc2I)c2ccccc21 (stereo not drawn) [2-47]
CB2 receptor; Table 2, read-out: Ki nM CB2
  Ki: 18.8 nM
CB1 receptor; [2]
  Ki: 240 nM

## CN1CCCCC1Cn1cc(C(=O)c2cc([N+](=O)[O-])ccc2I)c2ccccc21 (racemic) [2-7(R, S)]
CB2 receptor; CB2 versus CB1 binding
  selectivity for the CB2 receptor (in words): high selectivity for the CB2 receptor
CB2 receptor; Table 1, read-out: Ki nM CB2
  Ki: 5.7 nM
Human CB2 receptors; Table 1, human CB2, human tissue samples, read-out: Ki nM CB2 (human)
  Ki: 1.6 nM
Human CB2 receptors; human tissue samples
  binding affinity to human CB2 receptors (in words): surprisingly potent cannabinoid
CB1 receptor; [4]
  Ki: 403 nM
